Several values for one entry are separate records, joined by “and”; a condition that tells them apart may be missing. Identical values can stand only once.
What was measured:
[1] = test system: healthy C57BL/6J mice
Procedure: The Open-Field test (OFT) was utilized to evaluate the autonomous behavior, exploratory tendencies, and anxiety levels of experimental animals in a new environment. Each mouse was placed at the center of the container and given a 10-min exploration period. Before the test, the animals were acclimated to the experimental setting for 60 min. […] This cleaning procedure aimed to reduce the risk of contamination and prevent any misleading experimental results due to olfactory stimuli. Anxiety levels and exploratory behavior were assessed by measuring the time spent in the central area, the number of entries into the central area, and the total distance traveled by the mice.

[2] = molecular target: T1, TRPC5 homomers (Homo sapiens, UniProt Q9UL62); assay: Whole-cell patch-clamp, inhibition of EA-activated TRPC5 homomers; type: cell-based
T1 construct: full length hTRPC5 (TRPC5 wild type (WT)); expressed in transfected cells; host or cells: HEK293T
T1 sequence (Q9UL62 1-973): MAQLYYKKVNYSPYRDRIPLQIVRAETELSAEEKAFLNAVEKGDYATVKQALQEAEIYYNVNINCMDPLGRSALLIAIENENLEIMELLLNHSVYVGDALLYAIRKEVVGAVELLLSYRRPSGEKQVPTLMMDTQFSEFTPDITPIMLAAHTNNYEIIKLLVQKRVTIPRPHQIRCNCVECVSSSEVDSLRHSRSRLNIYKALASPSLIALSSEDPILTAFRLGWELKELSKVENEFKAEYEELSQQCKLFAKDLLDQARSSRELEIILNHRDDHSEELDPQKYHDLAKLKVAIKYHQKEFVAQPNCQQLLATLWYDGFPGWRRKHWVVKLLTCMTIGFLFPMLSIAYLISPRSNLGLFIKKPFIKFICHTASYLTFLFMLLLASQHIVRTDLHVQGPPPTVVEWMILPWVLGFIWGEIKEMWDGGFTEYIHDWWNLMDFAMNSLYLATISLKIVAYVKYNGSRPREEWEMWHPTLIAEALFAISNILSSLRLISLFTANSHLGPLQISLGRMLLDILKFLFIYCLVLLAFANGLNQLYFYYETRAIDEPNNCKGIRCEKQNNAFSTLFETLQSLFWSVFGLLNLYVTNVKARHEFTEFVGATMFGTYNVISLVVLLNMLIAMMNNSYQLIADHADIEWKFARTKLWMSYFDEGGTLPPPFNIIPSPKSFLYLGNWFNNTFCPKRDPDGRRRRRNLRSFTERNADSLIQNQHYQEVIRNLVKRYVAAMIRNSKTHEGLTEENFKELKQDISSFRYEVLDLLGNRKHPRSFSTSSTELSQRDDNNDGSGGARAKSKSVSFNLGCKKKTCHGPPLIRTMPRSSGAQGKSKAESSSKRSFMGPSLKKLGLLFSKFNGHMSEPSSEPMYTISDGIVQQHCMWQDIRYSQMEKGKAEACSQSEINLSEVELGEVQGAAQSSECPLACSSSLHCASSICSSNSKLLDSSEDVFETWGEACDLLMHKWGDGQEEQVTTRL

[3] = test system: lateral amygdala (LA) neurons; assay: Current-clamp recordings in acute brain slices, CCK-4-induced hyperexcitability; type: cell-based, mouse; settings: ex vivo brain slices
Procedure: Coronal brain slices (300 μm) were prepared from male C57BL/6 J mice (8–10 weeks, Jinan Pengyue Laboratory Animal Breeding Co., Ltd., Jinan, China) and initially incubated in ACSF-1.5 at 32 for 30 min, followed by an additional 1 h at room temperature. Subsequently, slices were transferred to oxygenated artificial cerebrospinal fluid (ACSF) containing the test compound and incubated for 2–3 h before being placed in a recording chamber perfused with ACSF-1.5.
Electrophysiological recordings were performed under an Olympus microscope equipped with a 40× long-working-distance objective. Recording electrodes (3-4 MΩ) were pulled from borosilicate glass capillaries. […] After achieving a gigaseal in voltage-clamp mode at −70 mV and establishing whole-cell configuration with series resistance compensation, recordings were switched to current-clamp mode. Step currents ranging from −60 pA to 300 pA (Δ = 20 pA, 500 ms duration, 3 s interval) were applied to evoke action potentials. […] Intracellular solution (mM): 140 K-gluconate, 2 MgCl₂, 8 KCl, 10 HEPES, 2 Na₂-ATP, 0.2 Na₂-GTP; pH adjusted to 7.2 with KOH.
(d) Quantification of action potential
Data are presented as mean ± SEM (n = 11 neurons

[4] = molecular target: T2, TRPC1/5 heteromers (Homo sapiens, UniProt P48995+Q9UL62); assay: Whole-cell patch-clamp, inhibition of EA-activated TRPC1/5 heteromers; type: cell-based
T2 construct: wild type plasmids full-length hTRPC1 (WT) and full-length hTRPC5 (WT); expressed in transfected cells; host or cells: HEK293T
T2 sequence (P48995 whole entry, one chain of several): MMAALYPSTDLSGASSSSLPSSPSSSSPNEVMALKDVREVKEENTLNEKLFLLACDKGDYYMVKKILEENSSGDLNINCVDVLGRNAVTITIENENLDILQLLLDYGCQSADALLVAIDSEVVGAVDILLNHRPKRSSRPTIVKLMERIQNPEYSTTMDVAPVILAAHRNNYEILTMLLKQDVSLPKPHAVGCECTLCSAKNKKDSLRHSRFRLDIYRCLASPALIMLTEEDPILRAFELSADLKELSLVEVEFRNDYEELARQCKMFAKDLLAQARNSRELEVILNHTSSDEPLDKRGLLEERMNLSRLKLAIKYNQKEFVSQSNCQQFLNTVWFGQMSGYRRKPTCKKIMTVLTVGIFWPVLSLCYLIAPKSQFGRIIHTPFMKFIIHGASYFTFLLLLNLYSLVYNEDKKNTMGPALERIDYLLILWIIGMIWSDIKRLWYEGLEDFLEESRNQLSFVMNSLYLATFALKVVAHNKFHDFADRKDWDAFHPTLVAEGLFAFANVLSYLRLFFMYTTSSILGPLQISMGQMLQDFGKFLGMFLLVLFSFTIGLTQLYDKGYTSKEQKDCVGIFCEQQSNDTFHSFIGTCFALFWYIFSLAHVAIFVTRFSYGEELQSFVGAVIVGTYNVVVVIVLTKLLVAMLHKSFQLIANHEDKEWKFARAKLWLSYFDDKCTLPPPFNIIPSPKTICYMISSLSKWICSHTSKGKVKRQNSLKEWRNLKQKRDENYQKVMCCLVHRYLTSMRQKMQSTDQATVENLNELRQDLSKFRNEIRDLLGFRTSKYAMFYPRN
Text: The full-length hTRPC5 or truncated mTRPC5, and the full-length hTRPC1 constructs was respectively co-transfected in a plasmid ration 1:3 (w/w) into HEK293T cells (from the ATCC). As previously described, a mCherry was inserted into TRPC5 constructs and a GFP was inserted at the C terminus of TRPC1. Therefore, Cells with red and green fluorescence were selected for whole-cell patch recordings (HEKA EPC10 amplifier, […] software (https://www.heka.com/downloads/downloads_main.html#down_patchmaster)). A 1-s ramp protocol from −100 to +100 mV was applied at a frequency of 0.2 Hz. Signals were sampled at 50 kHz and filtered at 2.9 kHz. The pipette solution contained 130 mM CsCl, 1 mM MgCl2, 5.7 mM CaCl2, 10 mM EGTA, and 10 mM Hepes (calculated free Ca^2+, 200 nM), and the pH was titrated to 7.2 using CsOH[40]. The standard bath solution contained 140 mM NaCl, 5 mM KCl, 1 mM MgCl2, 2 mM CaCl2, 10 mM Hepes, and 10 mM D-glucose, and the pH was adjusted to 7.4 with NaOH (1 M). The recording chamber (150 μL) was perfused at a rate of ~2 mL/min. All recordings were performed at room temperature.

[5] = molecular target: T3, hTRPC5 (Homo sapiens, UniProt Q9UL62); assay: Calcium flux assay (Calcium 5 kit, EA 100 nM), hTRPC5 in HEK293T cells; type: cell-based; settings: calcium flux screening, 10 μM
T3 construct: Full-length, non-tagged hTRPC1 and hTRPC5 constructs are used for calcium flux assays; expressed in transfected cells; host or cells: HEK293T
T3 sequence (Q9UL62 1-973): T1 sequence (Q9UL62 1-973)
Procedure: Five minutes before measurement, molecules are added to each well at a final concentration of 10 µM under light-sensitive conditions.

[6] = molecular target: T4, TRPC7 homomer (Homo sapiens, UniProt Q9HCX4); assay: Whole-cell patch-clamp, inhibition of TRPC7 homomer; type: cell-based
T4 construct: expressed in transfected cells
T4 sequence (Q9HCX4 1-862): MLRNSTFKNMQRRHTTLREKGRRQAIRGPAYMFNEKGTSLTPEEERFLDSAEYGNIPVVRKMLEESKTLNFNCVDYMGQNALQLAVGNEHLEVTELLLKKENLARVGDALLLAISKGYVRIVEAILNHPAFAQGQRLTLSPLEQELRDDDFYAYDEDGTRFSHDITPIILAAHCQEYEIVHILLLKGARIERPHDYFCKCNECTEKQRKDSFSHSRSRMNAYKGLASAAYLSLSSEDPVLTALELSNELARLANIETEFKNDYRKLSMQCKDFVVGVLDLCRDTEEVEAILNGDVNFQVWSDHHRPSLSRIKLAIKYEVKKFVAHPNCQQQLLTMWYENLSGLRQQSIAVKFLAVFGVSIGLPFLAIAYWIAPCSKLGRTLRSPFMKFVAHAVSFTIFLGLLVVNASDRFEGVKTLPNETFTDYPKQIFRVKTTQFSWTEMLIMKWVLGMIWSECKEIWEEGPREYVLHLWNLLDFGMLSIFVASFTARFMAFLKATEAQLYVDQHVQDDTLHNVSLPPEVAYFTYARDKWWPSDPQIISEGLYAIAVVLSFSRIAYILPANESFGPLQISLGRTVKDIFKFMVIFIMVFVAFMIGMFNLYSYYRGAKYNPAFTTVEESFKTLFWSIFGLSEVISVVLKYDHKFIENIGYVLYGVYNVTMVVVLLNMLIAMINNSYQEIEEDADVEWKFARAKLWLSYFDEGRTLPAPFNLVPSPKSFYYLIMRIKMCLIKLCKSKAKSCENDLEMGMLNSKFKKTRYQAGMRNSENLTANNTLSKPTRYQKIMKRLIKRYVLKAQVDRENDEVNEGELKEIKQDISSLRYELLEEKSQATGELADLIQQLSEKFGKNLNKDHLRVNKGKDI
Text: Error bars represent the standard error of the mean (SEM, n = 5 independent cells).

CN(C)CCCCn1c(=O)c2c(nc(Oc3cccc(Cl)c3)n2Cc2ccc(Cl)cc2)n(C)c1=O [H08]
OFT total distance traveled [1]: no significant effect
concentration at which inhibition of TRPC5 homomers appears [2]: > 5 µM
HillSlope, TRPC5 ([2]; whole-cell patch-clamp): 1.990
IC50 ([2]; whole-cell patch-clamp): 8500 nM
HillSlope, TRPC5 ([2]; whole-cell patch-clamp, listed as JD03-02): > 1
effect on CCK-4-induced hyperexcitability of lateral amygdala neurons (in words) [3]: selectively suppresses CCK-4-induced hyperexcitability
Hill coefficient, TRPC1/C5 heteromer ([4]; combined fitting with additional 0.01 nM and 0.001 nM points (rebuttal)): approximately 0.33
IC50 ([4]; whole-cell patch-clamp, read-out: IC50, TRPC1/C5): 0.239 nM and 0.2 nM
inhibitory activity toward TRPC5 homomers (in words) [5]: minimal effect
IC50 [6]: > 10000 nM
inhibition of TRPC7 ([6]; 10 μM): no more than 40%
